This data set is described as follows: Stability of diaryliodonium salt precursors under heating and base conditions (HPLC of by-products I-mazenil and H-mazenil). The data set is classed as physicochemical. The note with it: for relative instability of precursor (stability of 8f set forth to be 1.00): 150° C., 15 min, K2.2.2./K2CO3 in dimethylformamide, without fluorine-18, ratio relative to 8f (FIG. 6). How it is done:
Contrary to the expectation that the diaryliodonium salt precursors (8b to 8e) could be labeled at higher yields than precursor 8a thanks to their higher electron densities, a lower labeling yield of fluorine18 was detected for them at high temperatures in the presence of a base. This might be accounted by the significance of the stability of the precursors. To verify this, the precursors were analyzed for stability in the […] to examine the reactivity of each precursor. In the following Reaction Scheme 2, the degradation of each diaryliodonium salt precursor in the presence of base under a heating condition is illustrated. As shown, two compounds I-mazenil (9) and H-mazenil (10) are formed, and their concentrations reflect the stability of the diaryliodonium salt precursor.
The diaryliodonium salt precursors whose aromatic rings are richer in electron density, compared to phenyl-mazenil-iodonium salt (8a), are more apt to be affected by the reaction conditions for aromatic fluorination with fluorine-18. […] To examine the selectivity and stability of the diaryliodonium salts, the production of the by-products I-mazenil (9) and H-mazenil(10) which are degraded from the precursors due to their instability in a condition free of fluorine-18 was analyzed using HPLC. […]
After each diaryliodonium salt precursor was thermally treated 150° C. for 15 min in the presence of kryptofix2.2.2./potassium carbonate (K2.2.2./K2CO3) in dimethylformamide, without fluorine-18, measurement was made of the concentrations of 1-mazenil (9) and H-mazenil (10) to evaluate the stability of each precursor (FIG. 6). In addition, the labeling reactivity of the diaryliodonium salt precursors into [19F]flumazenil was assessed by reacting them with cesium fluoride at 90° C. for 120 min in dimethylformamide (FIG. 7). […]

On to `CCOC(=O)c1ncn2c1CN(C)C(=O)c1cc([I+]c3ccc(C)cc3)ccc1-2.Cc1ccc(S(=O)(=O)[O-])cc1` [Precursor 8f, ethyl 8-(4-methylphenyl)(iodonium tosylate)-5,6-dihydro-5-methyl-6-oxo-4H-imidazo[1,5-a][1,4]benzodiazepine-3-carboxylate], for which the “relative instability of precursor (stability of 8f set forth to be 1.00)” value turned out to be 1.00. Further, the “stability among the diaryliodonium salt precursors” value (potassium carbonate and 150° C., similar results with TBAHCO3 and TBAOH (FIG. 6)) is given as “the most stable”.
On to `CCOC(=O)c1ncn2c1CN(C)C(=O)c1cc([I+]c3ccccc3)ccc1-2.Cc1ccc(S(=O)(=O)[O-])cc1` [Precursor 8a, ethyl 8-phenyl(iodonium tosylate)-5,6-dihydro-5-methyl-6-oxo-4H-imidazo[1,5-a][1,4]benzodiazepine-3-carboxylate], for which the “relative instability of precursor (stability of 8f set forth to be 1.00)” value came to 1.11.

The values are drawn from patent publication US8895727B2, “Method for preparation of fluorine-18-labeled flumazenil using diaryliodonium salt precursor” (priority 2011, dated 2014).
